According to ChEMBL document CHEMBL6087466, “The Potential of PARP Inhibitors as Antitumor Drugs and the Perspective of Molecular Design” (J Med Chem, 2025):

Columns and labels:
[1] = target: Poly [ADP-ribose] polymerase 1 (Homo sapiens, UniProt P09874); experiment: Inhibition of PARP1 (unknown origin)
[2] = test system: SK-OV-3; experiment: Antiproliferative activity against human SK-OV-3 cells assessed as reduction in cell growth by SRB assay; assay type: functional, cell-based

Poly [ADP-ribose] polymerase 1, sequence (P09874 whole entry): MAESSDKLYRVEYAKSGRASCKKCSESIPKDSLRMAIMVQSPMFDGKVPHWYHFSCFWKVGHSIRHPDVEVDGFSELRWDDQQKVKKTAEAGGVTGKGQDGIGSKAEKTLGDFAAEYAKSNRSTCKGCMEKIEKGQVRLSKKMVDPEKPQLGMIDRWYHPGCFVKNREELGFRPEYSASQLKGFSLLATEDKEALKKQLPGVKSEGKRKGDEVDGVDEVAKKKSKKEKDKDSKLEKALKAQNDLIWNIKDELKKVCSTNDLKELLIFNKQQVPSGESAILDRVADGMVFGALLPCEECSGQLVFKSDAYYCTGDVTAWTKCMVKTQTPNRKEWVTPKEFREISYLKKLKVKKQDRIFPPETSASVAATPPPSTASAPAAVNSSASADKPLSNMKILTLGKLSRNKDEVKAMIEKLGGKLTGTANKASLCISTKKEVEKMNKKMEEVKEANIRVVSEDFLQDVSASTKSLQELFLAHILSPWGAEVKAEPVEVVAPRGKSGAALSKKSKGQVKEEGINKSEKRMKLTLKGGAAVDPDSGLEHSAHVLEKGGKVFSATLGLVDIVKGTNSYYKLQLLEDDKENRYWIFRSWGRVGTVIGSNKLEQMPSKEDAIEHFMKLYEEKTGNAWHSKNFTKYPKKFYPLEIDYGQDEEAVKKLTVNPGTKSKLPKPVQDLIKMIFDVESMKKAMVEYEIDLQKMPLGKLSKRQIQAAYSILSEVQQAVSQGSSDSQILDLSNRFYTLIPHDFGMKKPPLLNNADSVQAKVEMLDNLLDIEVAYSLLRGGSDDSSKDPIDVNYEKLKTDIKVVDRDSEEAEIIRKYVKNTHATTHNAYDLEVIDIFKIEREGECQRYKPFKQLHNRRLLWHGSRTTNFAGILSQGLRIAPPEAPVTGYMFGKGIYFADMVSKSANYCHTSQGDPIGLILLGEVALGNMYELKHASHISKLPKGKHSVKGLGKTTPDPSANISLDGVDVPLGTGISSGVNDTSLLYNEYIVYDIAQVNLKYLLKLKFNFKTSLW

IC50 [1]	IC50 [2]	SMILES
1 nM	–	N#Cc1ccc(N2CCN([C@H]3C=C(c4cc5ncccc5c(=O)[nH]4)CC3)CC2)cc1
26 nM	4980 nM	CCNC(=S)N/N=C/c1ccc(-c2nc3c(oc4ccccc43)c(=O)[nH]2)cc1
93 nM	–	NC(=O)c1cccc2[nH]c(CCCCCCOc3cc(O)c4c(=O)cc(-c5ccccc5)oc4c3)nc12
